Measured values published in EPA's ToxValDB 9.5 (doi:10.2903/j.efsa.2009.258r).

Key:
Apis mellifera = details: acute; oral; unspecified; mortality
Bibionidae = details: chronic/long-term; duration: 28 days; reproduction
Canidae = details: chronic; duration: 1 years; oral; Dog Other; clinical chemistry
Daphnia magna = details: chronic/long-term; duration: 21 days; reproduction
Folsomia candida = details: chronic/long-term; duration: 28 days
Oryctolagus sp. = details: reproduction developmental; food consumption
Pimephales promelas = details: chronic/long-term; duration: 28 days; growth
Tagia sp. = details: acute; duration: 14 days; mortality
Aphidius rhopalosiphi = experiment: LR50; higher = less toxic; details: not reported; mortality

SMILES: O=C(Cc1ccccc1)N/C(=N\OCC1CC1)c1c(C(F)(F)F)ccc(F)c1F [Cyflufenamid]
- LD50 (Apis mellifera): > 100 µg/piece
- NOEC (Bibionidae): 1 mg/L
- NOAEL (Canidae): 4.1 mg/kg-day
- LC50 (Colinus virginianus; acute, oral, diet, mortality): > 743 mg/kg-day
- LD50 (Colinus virginianus; acute, oral, mortality): > 2000 mg/kg-day
- NOEC (Colinus virginianus; reproduction developmental): 98 mg/kg-day
- NOEC (Daphnia magna): 0.0406 mg/L
- NOEC (Folsomia candida): > 0.0178 mg/kg
- NOAEL (Oryctolagus sp.): 5 mg/kg-day
- NOEC (Pimephales promelas): 0.024 mg/L
- LD50 (Rattus norvegicus; acute, oral, mortality): > 5000 mg/kg-day
- NOAEL (Rattus norvegicus; chronic, duration: 2 years, F, histopathology: nonneoplastic): 4.4 mg/kg-day
- NOAEL (Rattus norvegicus; chronic, duration: 2 years, M, histopathology: nonneoplastic): 4.4 mg/kg-day
- NOEC (Rattus norvegicus; reproduction developmental, mortality): 800 mg/kg-day
- NOAEL (Rattus norvegicus; reproduction developmental, reproduction): 57 mg/kg-day
- LC50 (Tagia sp.): > 500 mg/kg
- LR50 (Aphidius rhopalosiphi): 50 g/ha
